# From paper PMC11953309 (Nature Communications, 2025)
# Test system: IBD mouse fecal-derived ex vivo microbial community
# Experiment: Ex vivo screening on IBD mouse fecal-derived microbial community
# Format: cell-based, IL-10-deficient C57BL/6N mouse
smiles,measurement,setting,value
CN[C@H](CC(C)C)C(=O)N[C@H]1C(=O)N[C@@H](CC(N)=O)C(=O)N[C@H]2C(=O)N[C@H]3C(=O)N[C@H](C(=O)N[C@H](C(=O)O)c4cc(O)cc(O)c4-c4cc3ccc4O)[C@H](O)c3ccc(c(Cl)c3)Oc3cc2cc(c3O[C@@H]2O[C@H](CO)[C@@H](O)[C@H](O)[C@H]2O[C@H]2C[C@](C)(N)[C@H](O)[C@H](C)O2)Oc2ccc(cc2Cl)[C@H]1O [vancomycin],Number of differentially abundant species,"10 μg/mL, 48 h anaerobic, mGAM, MaAsLin2 vs blank, FDR-adjusted p < 0.05, n = 3",73
same,"beta diversity (PCoA, Bray-Curtis) clustering vs blank","AIPs 10 μg/mL, vancomycin 1 μg/mL and 10 μg/mL, 48 h",notable differences
